Measured values as given in patent US20130261146A1, “NITRIC OXIDE AND ITS BIOMEDICAL SIGNIFICANCE” (The Research Foundation of State University of New York, priority 2010, published 2013).

Experiments:
E. coli bacteria = test: Inhibition of bacterial growth in culture; format: cell-based; conditions: E. coli incubated 5 and 24 hours at 37° C, streaked on LB-agar overnight
Method: Example 9 illustrates the anti-microbial effects of extracts including the active chemical agents on cells. A dried, powdered, formulation of a 1:1 mixture of the wheat grass extract and white willow bark extract prepared in Example 1 above was tested for its ability to inhibit bacterial growth in culture. The formulation was reconstituted in 10 ml of LB broth (Amersham Biosciences, Inc.). The broth was then inoculated with E. coli bacteria and incubated for 5 and 24 hours at 37° C. 20 μl of the cultures were streaked on LB-agar plates and incubated overnight at 37° C. […] An additional control experiment was conducted with the known antibacterial agent, SNAP. One μg/ml SNAP was added to LB broth. The broth was then inoculated with E. coli bacteria and incubated for 5 and 24 hours at 37° C. 20 μl of the cultures were streaked on LB-agar plates and incubated overnight at 37° C. Bacterial growth was decreased in the SNAP culture at 5 and 24 hours, as compared to the control.

[1] = system: SK-N-MC (ATCC # HBT-10) cells; test: NO determination of SK-N-MC cells treated with plant extractions; format: cell-based; conditions: 6 mg of crude extraction
Method: Employing the isolation and purification techniques described above, a variety of herbaceous plants were analyzed for their ability to release cNOS—derived nitric oxide in the pedal ganglia and in publicly available SK-N-MC (ATCC # HBT-10) and PC-12 (ATCC # CRL 1721) cells. In Table I, a plus sign indicates detection of at least 1 nM nitric oxide. […] In Table II, results in the SK-N-MC cell line are set forth; the concentration of plant material used and the quantity of NO detected is indicated. […] In Table III, results are set forth for the identical procedures performed using the ganglia cell line. The types of plant materials employed are indicated, for example flowers, leaves, roots, rhizomes, stems, bark. Where not specified, leaves were employed.

Row | SMILES | bacterial growth versus control (LB broth alone) (E. coli bacteria) | Results (nM), NO determination of SK-N-MC cells [1]
1 | CC(=O)NC(C(=O)O)C(C)(C)SN=O (racemic) [SNAP, S-nitroso-N-acetyl-DL-penicillamine] | decreased | 
2 | O=c1c(O)c(-c2ccc(O)c(O)c2)oc2cc(O)cc(O)c12 [Quercetine] |  | 14 nM
